Measured values as given in the supplement of paper PMC10307832.

What was measured:
Experiment in all cases: relative viability (nuclei count vs DMSO), 5 days (fraction); higher = more cells survive
Doramapimod + Luminespib = compound: Cc1ccc(-n2nc(C(C)(C)C)cc2NC(=O)Nc2ccc(OCCN3CCOCC3)c3ccccc23)cc1 [Doramapimod] + CCNC(=O)c1noc(-c2cc(C(C)C)c(O)cc2O)c1-c1ccc(CN2CCOCC2)cc1 [Luminespib] (partner 0.01 µM)
Outline: (§1)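 A single step with final 0.05% Triton X-100, 1% formaldehyde and 1 ug/ml Hoechst fixed the cells and stained nuclei 5 days after treatment. Lung cancer cell lines in 1536-well plates had been treated by pin tool the day after seeding with one drug alone or a fixed anchor-drug dose plus five library-drug doses (not always all listed) in √10 steps, and nuclei were counted on 4× images. Relative viability is the ratio of nuclei in treated wells to nuclei in vehicle wells, taken as the median of duplicate plates.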

RAF265 + Phenformin = compound: Cn1c(Nc2ccc(C(F)(F)F)cc2)nc2cc(Oc3ccnc(-c4ncc(C(F)(F)F)[nH]4)c3)ccc21 [RAF265] + N=C(N)NC(=N)NCCc1ccccc1 [Phenformin] (partner 250 µM)
Outline: as §1

RAF265 + Crizotinib = compound: Cn1c(Nc2ccc(C(F)(F)F)cc2)nc2cc(Oc3ccnc(-c4ncc(C(F)(F)F)[nH]4)c3)ccc21 [RAF265] + C[C@@H](Oc1cc(-c2cnn(C3CCNCC3)c2)cnc1N)c1c(Cl)ccc(F)c1Cl [Crizotinib] (partner 1 µM)
Outline: as §1

RAF265 + Luminespib = compound: Cn1c(Nc2ccc(C(F)(F)F)cc2)nc2cc(Oc3ccnc(-c4ncc(C(F)(F)F)[nH]4)c3)ccc21 [RAF265] + CCNC(=O)c1noc(-c2cc(C(C)C)c(O)cc2O)c1-c1ccc(CN2CCOCC2)cc1 [Luminespib] (partner 0.01 µM)
Outline: as §1

Cell Line | relative viability (Doramapimod + Luminespib; first compound 0.02 µM) | relative viability (Doramapimod + Luminespib; first compound 0.06325 µM) | relative viability (Doramapimod + Luminespib; first compound 0.2 µM) | relative viability (Doramapimod + Luminespib; first compound 0.6325 µM) | relative viability (Doramapimod + Luminespib; first compound 2 µM) | relative viability (RAF265 + Phenformin; first compound 0.01 µM) | relative viability (RAF265 + Phenformin; first compound 0.03162 µM) | relative viability (RAF265 + Phenformin; first compound 0.1 µM) | relative viability (RAF265 + Phenformin; first compound 0.3162 µM) | relative viability (RAF265 + Phenformin; first compound 1 µM) | relative viability (RAF265 + Crizotinib; first compound 0.01 µM) | relative viability (RAF265 + Crizotinib; first compound 0.03162 µM) | relative viability (RAF265 + Crizotinib; first compound 0.1 µM) | relative viability (RAF265 + Crizotinib; first compound 0.3162 µM) | relative viability (RAF265 + Crizotinib; first compound 1 µM) | relative viability (RAF265 + Luminespib; first compound 0.01 µM) | relative viability (RAF265 + Luminespib; first compound 0.03162 µM) | relative viability (RAF265 + Luminespib; first compound 0.1 µM) | relative viability (RAF265 + Luminespib; first compound 0.3162 µM) | relative viability (RAF265 + Luminespib; first compound 1 µM)
NCI-H23 | 0.23 | 0.204 | 0.218 | 0.209 | 0.221 | 0.754 | 0.749 | 0.669 | 0.544 | 0.59 | 0.623 | 0.502 | 0.473 | 0.388 | 0.248 | 0.22 | 0.225 | 0.221 | 0.212 | 0.221
ABC-1 | 0.423 | 0.67 | 0.156 | 0.863 | 0.555 | 0.21 | 0.223 | 0.228 | 0.187 | 0.21 | 1.17 | 0.864 | 1.37 | 0.851 | 0.464 | 0.656 | 0.823 | 0.75 | 0.519 | 0.265
201T | 1.01 | 1.01 | 0.99 | 1.18 | 1 | 0.392 | 0.422 | 0.453 | 0.434 | 0.38 | 1.08 | 0.996 | 1.05 | 1.06 | 1.08 | 1.07 | 0.972 | 1.03 | 0.995 | 0.997
NCI-H1734 | 0.227 | 0.259 | 0.214 | 0.17 | 0.18 | 0.458 | 0.376 | 0.32 | 0.317 | 0.257 | 0.662 | 0.47 | 0.751 | 0.492 | 0.319 | 0.227 | 0.189 | 0.178 | 0.17 | 0.17
NCI-H520 | 0.195 | 0.212 | 0.24 | 0.206 | 0.232 | 0.553 | 0.544 | 0.579 | 0.555 | 0.397 | 0.632 | 0.762 | 0.774 | 0.771 | 0.607 | 0.211 | 0.232 | 0.235 | 0.208 | 0.215
NCI-H1650 | 0.186 | 0.171 | 0.195 | 0.176 | 0.209 | 0.55 | 0.438 | 0.49 | 0.333 | 0.361 | 1.03 | 0.83 | 1.15 | 0.877 | 0.913 | 0.176 | 0.208 | 0.192 | 0.205 | 0.216
NCI-H1355 | 0.721 | 0.689 | 0.706 | 0.723 | 0.648 | 0.432 | 0.434 | 0.41 | 0.309 | 0.332 | 1.11 | 1 | 1.02 | 0.766 | 0.337 | 0.705 | 0.726 | 0.747 | 0.411 | 0.246
NCI-H1915 | 0.58 | 0.821 | 0.793 | 0.9 | 0.712 | 0.364 | 0.341 | 0.265 | 0.203 | 0.183 | 0.875 | 0.81 | 0.727 | 0.496 | 0.234 | 0.819 | 0.728 | 0.616 | 0.258 | 0.188
